“And” between values parts separate entries of the source, which are not always exact repeats. Equal entries are not always repeated.
Assays:
L1210 Leukemia = experiment: L1210 leukemia antitumor screening; type: in vivo, Female CDF₁ mice; conditions: for %ILS: ILS ≧ 25% represents activity; for Surv.: survivors per 6 mice at three times the MST of controls
Procedure: (§1) Each compound was evaluated in at least one of these screens.
L1210 screening was conducted according to a published method. See Rose, W.C.; Schurig, J.F.; Huftalen, J.B.; Bradner, W.T. Cancer Treat. Rep. […] Female CDF₁ mice (16 - 22 g) were implanted with 1 x 10⁶ tumor cells ip on day zero. Compounds were administered in 0.5 mL water ip on day one. Groups of 6 mice were used for each dose. A control group received only tumor and 0.5 mL water. A positive control group received tumor and 8 mg/kg cisplatin in 0.5 mL of 0.15 M NaCl. The test was terminated after three times the mean survival time (MST) of the control group, surviving mice were counted as dying on that day. Activity was determined based on the percent increase in MST of test mice over controls (%ILS). […] The tumor line was maintained through weekly transfer of 5 x 10⁴ cells in DBA/2 mice.

Sarcoma 180 ascites = Sarcoma 180 ascites antitumor screening; type: in vivo, Female CFW mice; conditions: for %ILS: ILS ≧ 50% indicates activity; for Surv.: survivors per 6 mice at twice the MST of controls
Procedure: as §1
Female CFW mice (18 - 25 g) were implanted with 2 x 10⁶ cells ip on day zero. Compounds were administered in 0.5 mL water ip on day one. Groups of 6 mice were used for each test dose as well as controls as defined above. The test was run for twice the MST of the control group, with survivors counted as dying on that day. An ILS of ≧ 50% indicates activity. The tumor line was maintained through weekly transfer of 4 x 10⁶ cells in CFW mice.

[1] = S180a, dose 10 mg/kg ip in water on day one
[2] = S180a, dose 20 mg/kg ip in water on day one
[3] = S180a, dose 40 mg/kg ip in water on day one
[4] = S180a, dose 80 mg/kg ip in water on day one
[5] = S180a, dose 160 mg/kg ip in water on day one
[6] = S180a, dose 320 mg/kg ip in water on day one

## CC1CCNCC1.N.N.O=[N+]([O-])[O-].[Cl-].[Pt+2] [cis-[Pt(NH3)2(4-methylpiperidine)Cl]NO3, cis-[Pt(NH₃)₂(4-methylpiperidine)Cl]NO₃]
L1210 Leukemia; L1210, dose 10 mg/kg ip in water on day one
  %ILS: 24%
L1210 Leukemia; L1210, dose 10 mg/kg ip
  Surv.: 0/6
L1210 Leukemia; L1210, dose 20 mg/kg ip in water on day one
  %ILS: 17%
L1210 Leukemia; L1210, dose 20 mg/kg ip
  Surv.: 0/6
L1210 Leukemia; L1210, dose 40 mg/kg ip in water on day one
  %ILS: 60%
L1210 Leukemia; L1210, dose 40 mg/kg ip
  Surv.: 0/6
L1210 Leukemia; L1210, dose 80 mg/kg ip in water on day one
  %ILS: 57%
L1210 Leukemia; L1210, dose 80 mg/kg ip
  Surv.: 0/6
L1210 Leukemia; L1210, dose 160 mg/kg ip in water on day one
  %ILS: -28%
L1210 Leukemia; L1210, dose 160 mg/kg ip
  Surv.: 0/6
L1210 Leukemia; L1210, dose 320 mg/kg ip in water on day one
  %ILS: -68%
L1210 Leukemia; L1210, dose 320 mg/kg ip
  Surv.: 0/6
Sarcoma 180 ascites; [1]
  %ILS: 4%
Sarcoma 180 ascites; S180a, dose 10 mg/kg ip
  Surv.: 0/6
Sarcoma 180 ascites; [2]
  %ILS: 13%
Sarcoma 180 ascites; S180a, dose 20 mg/kg ip
  Surv.: 0/6
Sarcoma 180 ascites; [3]
  %ILS: 18%
Sarcoma 180 ascites; S180a, dose 40 mg/kg ip
  Surv.: 0/6
Sarcoma 180 ascites; [4]
  %ILS: 76%
Sarcoma 180 ascites; S180a, dose 80 mg/kg ip
  Surv.: 1/6
Sarcoma 180 ascites; [5]
  %ILS: 4%
Sarcoma 180 ascites; S180a, dose 160 mg/kg ip
  Surv.: 1/6
Sarcoma 180 ascites; [6]
  %ILS: -80%
Sarcoma 180 ascites; S180a, dose 320 mg/kg ip
  Surv.: 0/6

## CCCCCCCC[NH2+][Pt-2]([NH3+])([NH3+])[Cl].O=[N+]([O-])[O-] [cis-[Pt(NH3)2(octylamine)Cl]NO3, cis-[Pt(NH₃)₂(octylamine)Cl]NO₃]
Sarcoma 180 ascites; [1]
  %ILS: 16%
Sarcoma 180 ascites; S180a, dose 10 mg/kg ip
  Surv.: 0/6
Sarcoma 180 ascites; [2]
  %ILS: 25%
Sarcoma 180 ascites; S180a, dose 20 mg/kg ip
  Surv.: 0/6
Sarcoma 180 ascites; [3]
  %ILS: 22%
Sarcoma 180 ascites; S180a, dose 40 mg/kg ip
  Surv.: 0/6
Sarcoma 180 ascites; [4]
  %ILS: -78%
Sarcoma 180 ascites; S180a, dose 80 mg/kg ip
  Surv.: 0/6
Sarcoma 180 ascites; [5]
  %ILS: -78%
Sarcoma 180 ascites; S180a, dose 160 mg/kg ip
  Surv.: 0/6
Sarcoma 180 ascites; [6]
  %ILS: -95%
Sarcoma 180 ascites; S180a, dose 320 mg/kg ip
  Surv.: 0/6
Sarcoma 180 ascites; statement in words
  activity in the S-180 ascites screen: substantially no activity

## O=[N+]([O-])[O-].[NH3+][Pt-2]([NH3+])([Cl])[NH2+]CC1CCCCC1 (stereo not drawn) [cis-[Pt(NH₃)₂(cyclohexanemethylamine)Cl]NO₃]
Sarcoma 180 ascites; [1]
  %ILS: 15%
Sarcoma 180 ascites; S180a, dose 10 mg/kg ip
  Surv.: 0/6
Sarcoma 180 ascites; [2]
  %ILS: 22%
Sarcoma 180 ascites; S180a, dose 20 mg/kg ip
  Surv.: 0/6
Sarcoma 180 ascites; [3]
  %ILS: 19%
Sarcoma 180 ascites; S180a, dose 40 mg/kg ip
  Surv.: 1/6
Sarcoma 180 ascites; [4]
  %ILS: 61%
Sarcoma 180 ascites; S180a, dose 80 mg/kg ip
  Surv.: 0/6
Sarcoma 180 ascites; [5]
  %ILS: -78%
Sarcoma 180 ascites; S180a, dose 160 mg/kg ip
  Surv.: 0/6
Sarcoma 180 ascites; [6]
  %ILS: -94%
Sarcoma 180 ascites; S180a, dose 320 mg/kg ip
  Surv.: 0/6

## cis-[Pt(NH₃)₂Cl₂] [Positive Control, reference compound]
L1210 Leukemia; L1210, positive control 8 mg/kg cisplatin in 0.15 M NaCl ip
  Positive Control %ILS: 149%
L1210 Leukemia; L1210, positive control 8 mg/kg cisplatin in 0.15 M NaCl ip, survivors per 6 mice
  Positive Control Surv.: 2/6
Sarcoma 180 ascites; S180a, positive control 8 mg/kg cisplatin in 0.15 M NaCl ip
  Positive Control %ILS: 65% and 80%
Sarcoma 180 ascites; S180a, positive control 8 mg/kg cisplatin in 0.15 M NaCl ip, survivors per 6 mice
  Positive Control Surv.: 1/6 and 3/6

— patent publication EP0300812A2, “Platinum triamine antitumor agents containing saturated amines” (ENGELHARD CORPORATION, priority 1987, dated 1989)
